Key:
[1] = molecular target: Matrilysin (Homo sapiens) (UniProt P09237); experiment: Peptidase, Matrix Metalloproteinase-7 (MMP-7) Eurofins-Panlabs enzyme assay; set-up: substrate with concentration; conditions: Compound concentration 10.0 uM
Homo sapiens [2] = species on record: Homo sapiens; conditions: Compound concentration 10.0 uM
[3] = molecular target: Xanthine dehydrogenase/oxidase (Bos taurus) (UniProt P80457); experiment: Xanthine Oxidase Eurofins-Panlabs enzyme assay; conditions: cattle, bovine milk xanthine oxidase, probe Xanthine, 165 µM
[4] = molecular target: Cathepsin G (Homo sapiens) (UniProt P08311); experiment: Inhibition of Peptidase, CTSG (Cathepsin G) at 10 µM in the Eurofins-Panlabs enzyme assay (Eurofins_assay_112510); set-up: substrate with concentration; conditions: Compound concentration 10.0 uM
D(3) dopamine receptor = D(3) dopamine receptor (Homo sapiens, UniProt P35462); experiment: GPCRScan assay: inhibition of D3; set-up: radioligand conc. used [nm] 0.5 – 1.8, parental cells HEKT
[5] = molecular target: 5-hydroxytryptamine receptor 5A (Homo sapiens) (UniProt P47898); conditions: Compound concentration 10.0 uM
[6] = molecular target: Collagenase 3 (Homo sapiens) (UniProt P45452); experiment: Peptidase, Matrix Metalloproteinase-13 (MMP-13) Eurofins-Panlabs enzyme assay; set-up: substrate with concentration; conditions: Compound concentration 10.0 uM
[7] = molecular target: Cyclin-dependent kinase 1/cyclin B (Homo sapiens) (UniProt P06493+P14635+Q8WWL7+O95067); experiment: Protein Serine/Threonine Kinase, cdk1/Cyclin B Eurofins-Panlabs enzyme assay; type: protein-complex assay; conditions: Compound concentration 10.0 uM
[8] = molecular target: Glycogen synthase kinase-3 beta (Homo sapiens) (UniProt P49841); experiment: Protein Serine/Threonine Kinase, GSK-3β Eurofins-Panlabs enzyme assay; set-up: substrate with concentration; conditions: Compound concentration 10.0 uM
[9] = molecular target: Steroid 5-alpha-reductase (Rattus norvegicus) (UniProt P24008+P31214); experiment: Steroid 5α-Reductase Eurofins-Panlabs enzyme assay; type: protein assay; set-up: substrate with concentration; conditions: Compound concentration 10.0 uM
Renin (Homo sapiens) = Renin (Homo sapiens) (UniProt P00797); experiment: Peptidase, Renin Eurofins-Panlabs enzyme assay; conditions: Compound concentration 10.0 uM
[10] = molecular target: Epidermal growth factor receptor (Homo sapiens) (UniProt P00533); experiment: Protein Tyrosine Kinase, EGF Receptor Eurofins-Panlabs enzyme assay; set-up: substrate with concentration 10 µg/mL Poly(Glu:Tyr), incubation time 60 min, incubation temperature 25 °C; conditions: Compound concentration 10.0 uM
[11] = molecular target: Phosphodiesterase 3 (Homo sapiens) (UniProt Q14432+Q13370); experiment: Inhibition of Phosphodiesterase PDE3 at compound concentration of 10.0 uM in the Eurofins-Panlabs enzyme assay (Eurofins_assay_152000); type: protein assay; set-up: substrate with concentration 1.01 uM [3H] cAMP + cAMP, incubation time 20 min, incubation temperature 25 C; conditions: Compound concentration 10.0 uM
[12] = molecular target: T1, 5-hydroxytryptamine receptor 3A (Homo sapiens) (UniProt P46098); experiment: Inhibition of Serotonin (5-Hydroxytryptamine) 5-HT3 at 10 µM in the Eurofins-Panlabs radioligand binding assay (Eurofins_assay_271910); set-up: ligand concentration 0.69 nM; conditions: Compound concentration 10.0 uM
T1 sequence (whole entry): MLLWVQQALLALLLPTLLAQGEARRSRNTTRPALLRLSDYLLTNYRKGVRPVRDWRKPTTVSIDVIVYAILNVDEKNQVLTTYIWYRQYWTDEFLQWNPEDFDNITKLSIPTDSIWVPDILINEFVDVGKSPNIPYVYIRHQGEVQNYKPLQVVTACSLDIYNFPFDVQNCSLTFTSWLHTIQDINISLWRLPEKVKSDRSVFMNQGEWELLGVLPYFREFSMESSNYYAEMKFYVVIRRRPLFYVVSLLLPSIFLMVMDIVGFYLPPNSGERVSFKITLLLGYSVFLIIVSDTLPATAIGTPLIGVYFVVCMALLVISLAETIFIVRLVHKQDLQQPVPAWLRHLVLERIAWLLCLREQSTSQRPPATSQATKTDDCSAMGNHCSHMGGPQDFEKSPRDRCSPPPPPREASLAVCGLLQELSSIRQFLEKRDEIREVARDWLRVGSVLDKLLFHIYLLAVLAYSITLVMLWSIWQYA

[13] = molecular target: Ca2+/calmodulin-dependent protein kinase II (CaM kinase II) (Rattus norvegicus) (UniProt P11275+P08413+P15791+P11730); experiment: Protein Serine/Threonine Kinase, Ca2+/Calmodulin-Dep.II Eurofins-Panlabs enzyme assay; conditions: Compound concentration 10.0 uM
[14] = molecular target: Alpha-1B adrenergic receptor (Homo sapiens) (UniProt P35368); conditions: Compound concentration 10.0 uM
[15] = molecular target: Beta-2 adrenergic receptor (Homo sapiens, UniProt P07550); experiment: GPCRScan assay: inhibition of Beta2; set-up: radioligand conc. used [nm] 0.5 - 1.0, parental cells HEK Flp-In
D(4) dopamine receptor = D(4) dopamine receptor (Homo sapiens, UniProt P21917); experiment: GPCRScan assay: inhibition of D4; set-up: radioligand conc. used [nm] 0.6 – 1.7, parental cells Stable HEK
[16] = molecular target: 5-hydroxytryptamine receptor 6 (Homo sapiens) (UniProt P50406); conditions: Compound concentration 10.0 uM
[17] = molecular target: 5-hydroxytryptamine receptor 2C (Homo sapiens) (UniProt P28335); conditions: Compound concentration 10.0 uM
[18] = molecular target: Alpha-1D adrenergic receptor (Homo sapiens, UniProt P25100); experiment: GPCRScan assay: inhibition of Alpha1D; set-up: radioligand conc. used [nm] 0.3 – 1.0, parental cells stable
Homo sapiens [19] = species on record: Homo sapiens; experiment: Inhibition of Phosphodiesterase PDE4 at compound concentration of 10.0 uM in the Eurofins-Panlabs enzyme assay (Eurofins_assay_154000); type: protein assay; set-up: substrate with concentration 1.01 uM [3 H]cAMP + cAMP, incubation time 20 min, incubation temperature 25 C; conditions: Compound concentration 10.0 uM
Rattus norvegicus [20] = species on record: Rattus norvegicus; experiment: ATPase, Ca2+ Eurofins-Panlabs enzyme assay; conditions: Compound concentration 10.0 uM
[21] = molecular target: RAC-alpha serine/threonine-protein kinase (Homo sapiens) (UniProt P31749); experiment: Protein Serine/Threonine Kinase, PKBα/Akt1 Eurofins-Panlabs enzyme assay; conditions: Compound concentration 10.0 uM
[22] = molecular target: Neprilysin (Homo sapiens) (UniProt P08473); experiment: Peptidase, Metalloproteinase, Neutral Endopeptidase Eurofins-Panlabs enzyme assay; conditions: Compound concentration 10.0 uM
[23] = molecular target: Alpha-1D adrenergic receptor (Homo sapiens) (UniProt P25100); conditions: Compound concentration 10.0 uM
[24] = molecular target: Prostaglandin G/H synthase 1 (Homo sapiens) (UniProt P23219); experiment: Inhibition of Cyclooxygenase COX-1 at compound concentration of 10.0 uM in the Eurofins-Panlabs enzyme assay (Eurofins_assay_116020); conditions: Compound concentration 10.0 uM
MAO-B = MAO-B (Homo sapiens, UniProt P27338); experiment: Inhibition of Monoamine Oxidase MAO-B at compound concentration of 10.0 uM in the Eurofins-Panlabs enzyme assay (Eurofins_assay_140120); set-up: substrate with concentration 50 uM Kynuramine, incubation time 60 min, incubation temperature 37 C; conditions: recombinant human MAO-B expressed in insect Hi5 cells, probe Kynuramine, 50 uM, compound concentration 10 uM
[25] = molecular target: Cannabinoid receptor 1 (Homo sapiens) (UniProt P21554); experiment: Cannabinoid CB1 Eurofins-Panlabs radioligand binding assay; conditions: Compound concentration 10.0 uM
[26] = molecular target: Neuromedin-K receptor (Homo sapiens) (UniProt P29371); experiment: Tachykinin NK3 Eurofins-Panlabs radioligand binding assay; set-up: ligand concentration 0.8 nM; conditions: Compound concentration 10.0 uM
[27] = GPCRScan assay: inhibition of GABA/PBR; set-up: species or system Rattus norvegicus; radioligand conc. used [nm] 0.3 – 2.0, parental cells brain tissue
Homo sapiens [28] = species on record: Homo sapiens; experiment: Inhibition of Nicotinic Acetylcholine at compound concentration of 10.0 uM in the Eurofins-Panlabs radioligand binding assay (Eurofins_assay_258590); type: protein-complex assay; conditions: Compound concentration 10.0 uM
Rattus norvegicus [29] = species on record: Rattus norvegicus; experiment: Serotonin (5-Hydroxytryptamine) 5-HT2, Non-Selective Eurofins-Panlabs radioligand binding assay; type: protein assay; conditions: Compound concentration 10.0 uM

Beta-2 adrenergic receptor, sequence (P07550 whole entry): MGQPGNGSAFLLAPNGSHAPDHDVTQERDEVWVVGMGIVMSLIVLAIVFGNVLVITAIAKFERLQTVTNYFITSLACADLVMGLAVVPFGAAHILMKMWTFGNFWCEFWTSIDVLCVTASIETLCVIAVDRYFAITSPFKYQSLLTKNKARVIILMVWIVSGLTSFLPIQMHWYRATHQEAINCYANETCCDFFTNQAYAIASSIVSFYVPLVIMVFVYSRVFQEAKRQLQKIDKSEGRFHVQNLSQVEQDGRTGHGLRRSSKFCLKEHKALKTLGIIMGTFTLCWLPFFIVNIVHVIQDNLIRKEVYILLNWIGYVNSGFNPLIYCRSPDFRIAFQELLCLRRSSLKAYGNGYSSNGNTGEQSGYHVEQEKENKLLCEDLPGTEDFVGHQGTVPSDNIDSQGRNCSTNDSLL
RAC-alpha serine/threonine-protein kinase (Homo sapiens), sequence (P31749 whole entry): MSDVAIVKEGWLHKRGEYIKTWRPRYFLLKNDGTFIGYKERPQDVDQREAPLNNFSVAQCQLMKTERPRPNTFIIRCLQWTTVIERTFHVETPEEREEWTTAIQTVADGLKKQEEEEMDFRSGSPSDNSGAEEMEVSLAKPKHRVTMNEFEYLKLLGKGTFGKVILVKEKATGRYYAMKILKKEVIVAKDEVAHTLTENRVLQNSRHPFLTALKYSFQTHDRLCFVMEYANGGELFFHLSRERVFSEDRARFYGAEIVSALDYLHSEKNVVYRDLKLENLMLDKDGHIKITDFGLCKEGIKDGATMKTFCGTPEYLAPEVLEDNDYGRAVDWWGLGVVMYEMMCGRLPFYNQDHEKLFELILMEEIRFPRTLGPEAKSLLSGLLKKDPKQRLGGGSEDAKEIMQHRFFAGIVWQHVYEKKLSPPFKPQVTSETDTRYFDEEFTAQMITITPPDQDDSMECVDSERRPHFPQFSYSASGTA
Matrilysin (Homo sapiens), sequence (P09237 whole entry): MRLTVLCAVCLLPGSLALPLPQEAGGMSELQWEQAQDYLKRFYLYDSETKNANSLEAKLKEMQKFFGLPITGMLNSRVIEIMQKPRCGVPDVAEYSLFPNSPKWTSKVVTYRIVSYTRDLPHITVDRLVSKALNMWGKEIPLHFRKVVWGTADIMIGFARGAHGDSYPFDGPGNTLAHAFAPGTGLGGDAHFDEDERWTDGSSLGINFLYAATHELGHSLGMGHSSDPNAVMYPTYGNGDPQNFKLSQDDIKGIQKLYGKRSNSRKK
5-hydroxytryptamine receptor 2C (Homo sapiens), sequence (P28335 whole entry): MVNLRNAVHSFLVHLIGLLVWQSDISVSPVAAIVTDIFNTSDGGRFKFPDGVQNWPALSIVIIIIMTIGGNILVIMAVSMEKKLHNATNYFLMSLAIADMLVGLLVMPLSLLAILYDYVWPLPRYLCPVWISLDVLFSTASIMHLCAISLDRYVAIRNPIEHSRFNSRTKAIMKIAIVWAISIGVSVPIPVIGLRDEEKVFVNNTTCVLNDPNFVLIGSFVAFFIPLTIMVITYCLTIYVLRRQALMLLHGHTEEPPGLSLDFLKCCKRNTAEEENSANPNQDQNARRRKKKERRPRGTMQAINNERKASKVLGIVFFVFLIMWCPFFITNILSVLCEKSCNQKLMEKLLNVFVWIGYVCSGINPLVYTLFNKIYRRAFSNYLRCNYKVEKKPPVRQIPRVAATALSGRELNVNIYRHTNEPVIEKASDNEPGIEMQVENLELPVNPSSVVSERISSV
Cannabinoid receptor 1 (Homo sapiens), sequence (P21554 whole entry): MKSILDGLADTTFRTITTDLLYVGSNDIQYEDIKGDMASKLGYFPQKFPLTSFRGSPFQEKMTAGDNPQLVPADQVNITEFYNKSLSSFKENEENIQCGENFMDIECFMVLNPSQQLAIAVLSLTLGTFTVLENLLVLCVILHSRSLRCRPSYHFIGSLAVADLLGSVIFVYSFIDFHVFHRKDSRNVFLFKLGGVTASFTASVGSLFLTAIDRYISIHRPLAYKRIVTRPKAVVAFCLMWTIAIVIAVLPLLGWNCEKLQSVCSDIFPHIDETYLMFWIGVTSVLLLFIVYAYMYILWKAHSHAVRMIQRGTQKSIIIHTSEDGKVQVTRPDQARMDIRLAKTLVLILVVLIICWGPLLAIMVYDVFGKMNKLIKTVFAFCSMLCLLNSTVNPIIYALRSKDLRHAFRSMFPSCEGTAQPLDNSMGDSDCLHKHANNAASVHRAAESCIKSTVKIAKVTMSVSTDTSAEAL
Renin (Homo sapiens), sequence (P00797 whole entry): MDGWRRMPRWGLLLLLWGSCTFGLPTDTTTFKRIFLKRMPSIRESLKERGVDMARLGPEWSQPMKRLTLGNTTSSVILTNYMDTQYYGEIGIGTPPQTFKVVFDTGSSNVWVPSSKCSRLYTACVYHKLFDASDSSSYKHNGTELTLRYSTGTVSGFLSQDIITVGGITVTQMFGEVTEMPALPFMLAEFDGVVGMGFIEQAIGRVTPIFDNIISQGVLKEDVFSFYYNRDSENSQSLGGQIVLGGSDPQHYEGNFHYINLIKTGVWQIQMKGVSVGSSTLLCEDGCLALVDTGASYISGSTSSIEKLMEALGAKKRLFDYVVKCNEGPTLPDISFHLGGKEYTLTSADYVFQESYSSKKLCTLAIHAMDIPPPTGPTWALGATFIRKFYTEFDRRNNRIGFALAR
Neprilysin (Homo sapiens), sequence (P08473 whole entry): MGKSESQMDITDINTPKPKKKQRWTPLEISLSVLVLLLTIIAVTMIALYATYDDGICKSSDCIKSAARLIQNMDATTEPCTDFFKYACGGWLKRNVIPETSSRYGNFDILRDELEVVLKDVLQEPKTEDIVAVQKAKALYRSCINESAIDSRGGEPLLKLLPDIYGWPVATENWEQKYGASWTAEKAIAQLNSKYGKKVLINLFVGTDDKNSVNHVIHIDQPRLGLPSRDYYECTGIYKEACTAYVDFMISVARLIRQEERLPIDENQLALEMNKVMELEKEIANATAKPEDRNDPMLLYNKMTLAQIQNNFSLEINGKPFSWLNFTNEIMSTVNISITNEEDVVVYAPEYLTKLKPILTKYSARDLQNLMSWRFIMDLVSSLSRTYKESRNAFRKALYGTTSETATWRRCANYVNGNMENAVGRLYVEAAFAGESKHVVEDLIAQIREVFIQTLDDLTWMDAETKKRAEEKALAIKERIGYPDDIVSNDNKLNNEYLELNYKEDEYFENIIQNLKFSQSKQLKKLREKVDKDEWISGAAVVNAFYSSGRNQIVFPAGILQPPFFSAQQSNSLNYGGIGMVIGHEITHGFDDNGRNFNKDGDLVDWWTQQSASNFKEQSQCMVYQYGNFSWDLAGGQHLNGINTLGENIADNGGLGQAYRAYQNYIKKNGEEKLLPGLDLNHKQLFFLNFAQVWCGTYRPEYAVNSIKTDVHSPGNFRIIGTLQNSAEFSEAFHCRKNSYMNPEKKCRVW
5-hydroxytryptamine receptor 5A (Homo sapiens), sequence (P47898 whole entry): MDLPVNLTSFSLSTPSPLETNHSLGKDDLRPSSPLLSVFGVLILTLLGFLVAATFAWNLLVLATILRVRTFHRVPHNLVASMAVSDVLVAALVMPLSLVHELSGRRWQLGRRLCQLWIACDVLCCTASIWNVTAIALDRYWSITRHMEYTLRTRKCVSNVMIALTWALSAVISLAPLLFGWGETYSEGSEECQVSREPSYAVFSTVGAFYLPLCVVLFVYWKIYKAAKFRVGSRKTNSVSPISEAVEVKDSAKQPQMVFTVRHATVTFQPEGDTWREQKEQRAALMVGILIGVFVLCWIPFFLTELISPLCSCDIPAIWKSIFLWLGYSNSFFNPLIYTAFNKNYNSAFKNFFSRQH
MAO-B, sequence (P27338 whole entry): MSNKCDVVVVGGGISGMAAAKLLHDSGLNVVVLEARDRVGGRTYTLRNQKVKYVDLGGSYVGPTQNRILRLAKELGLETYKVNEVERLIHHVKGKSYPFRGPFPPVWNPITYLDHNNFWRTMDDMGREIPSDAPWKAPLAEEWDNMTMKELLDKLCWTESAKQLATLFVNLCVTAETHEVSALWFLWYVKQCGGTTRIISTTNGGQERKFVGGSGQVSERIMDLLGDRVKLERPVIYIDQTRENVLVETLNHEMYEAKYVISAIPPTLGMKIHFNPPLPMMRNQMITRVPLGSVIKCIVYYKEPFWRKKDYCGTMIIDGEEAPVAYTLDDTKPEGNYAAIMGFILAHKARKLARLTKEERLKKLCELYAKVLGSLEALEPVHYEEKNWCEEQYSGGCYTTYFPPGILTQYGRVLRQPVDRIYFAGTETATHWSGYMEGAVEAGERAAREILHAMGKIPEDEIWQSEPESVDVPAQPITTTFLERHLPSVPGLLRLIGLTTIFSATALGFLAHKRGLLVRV
Steroid 5-alpha-reductase (Rattus norvegicus), sequence (P24008 whole entry, looked up): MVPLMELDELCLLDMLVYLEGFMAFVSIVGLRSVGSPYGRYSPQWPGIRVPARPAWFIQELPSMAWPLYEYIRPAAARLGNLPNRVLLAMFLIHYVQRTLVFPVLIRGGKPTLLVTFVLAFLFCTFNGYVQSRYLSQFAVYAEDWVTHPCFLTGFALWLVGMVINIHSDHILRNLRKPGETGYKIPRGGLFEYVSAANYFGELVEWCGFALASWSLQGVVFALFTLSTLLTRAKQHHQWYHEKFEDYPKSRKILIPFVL
Steroid 5-alpha-reductase (Rattus norvegicus), sequence (P31214 whole entry, looked up): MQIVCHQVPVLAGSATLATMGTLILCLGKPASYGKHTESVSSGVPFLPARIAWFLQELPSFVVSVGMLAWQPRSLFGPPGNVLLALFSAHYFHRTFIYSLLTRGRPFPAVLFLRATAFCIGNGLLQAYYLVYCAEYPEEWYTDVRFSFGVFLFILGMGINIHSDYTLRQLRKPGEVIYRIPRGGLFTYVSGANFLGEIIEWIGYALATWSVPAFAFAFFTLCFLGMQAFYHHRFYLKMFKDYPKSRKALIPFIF
Cathepsin G (Homo sapiens), sequence (P08311 whole entry): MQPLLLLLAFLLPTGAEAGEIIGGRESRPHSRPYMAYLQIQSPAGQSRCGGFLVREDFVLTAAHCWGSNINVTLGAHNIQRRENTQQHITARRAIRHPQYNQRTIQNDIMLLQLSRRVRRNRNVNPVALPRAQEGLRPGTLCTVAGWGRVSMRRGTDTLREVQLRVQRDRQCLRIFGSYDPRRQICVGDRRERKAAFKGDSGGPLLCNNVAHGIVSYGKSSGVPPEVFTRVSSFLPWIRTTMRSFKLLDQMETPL

SMILES: Cc1cc(OC2CCS(=O)(=O)CC2)cc(C)c1-c1cccc(COc2ccc(CCC(=O)O)c(F)c2)c1
- inhibition [1]: 1%
- inhibition (Homo sapiens [2]): 1%
- inhibition at 30 min, 10 µM [3]: 1% (not active)
- inhibition [4]: 20%
- Ki (D(3) dopamine receptor): 0.925 µM
- inhibition [5]: 13.3%
- inhibition [6]: 5%
- inhibition [7]: 14%
- inhibition [8]: 19%
- inhibition [9]: 19%
- inhibition (Renin (Homo sapiens)): -1%
- inhibition [10]: 61%
- inhibition [11]: 3%
- inhibition [12]: -3%
- inhibition [13]: 44%
- inhibition [14]: 0.86%
- Ki [15]: > 10 µM
- pKi [15]: < 5
- Ki (D(4) dopamine receptor): 1.23 µM
- inhibition [16]: -7.86%
- inhibition [17]: 14.1%
- Ki [18]: 7.52 µM
- inhibition (Homo sapiens [19]): 26%
- inhibition (Rattus norvegicus [20]): -1%
- inhibition [21]: -1%
- inhibition [22]: 4%
- inhibition [23]: 50.8%
- inhibition [24]: 14%
- inhibition at 60 min, 10 µM (MAO-B): 6% (not active)

SMILES: Cc1cc(OC2CCS(=O)(=O)CC2)cc(C)c1-c1cccc(COc2ccc(C(=O)O)c(F)c2)c1
- inhibition [25]: -6%
- inhibition [26]: 10%
- Ki [27]: 2.75 µM
- pKi [27]: 5.56
- inhibition (Homo sapiens [28]): -5%
- inhibition (Rattus norvegicus [29]): -3%

Source: ChEMBL document CHEMBL5058642, “Data for DCP probe TP-051” (2022)
